Data as given in the kinase profiling compilation of Christmann-Franck et al. (2016).

Experiments:
Assay in all cases: KINOMEscan competition binding
Details in all cases: compound 10.0 µM
AAK1 (human) = AAK1 (human) (UniProt Q2M2I8)
AKT3 (human) = AKT3 (human) (UniProt Q9Y243)
AURKA (human) = AURKA (human) (UniProt O14965)
CAMK2D (human) = CAMK2D (human) (UniProt Q13557)
CAMK4 (human) = CAMK4 (human) (UniProt Q16566)
CAMKK1 (human) = CAMKK1 (human) (UniProt Q8N5S9)
CDC42BPG (human) = CDC42BPG (human) (UniProt Q6DT37)
CDK17 (human) = CDK17 (human) (UniProt Q00537)
CDKL2 (human) = CDKL2 (human) (UniProt Q92772)
CDKL5 (human) = CDKL5 (human) (UniProt O76039)
CLK4 (human) = CLK4 (human) (UniProt Q9HAZ1)
CSNK1G2 (human) = CSNK1G2 (human) (UniProt P78368)
DAPK3 (human) = DAPK3 (human) (UniProt O43293)
DCLK2 (human) = DCLK2 (human) (UniProt Q8N568)
DYRK1B (human) = DYRK1B (human) (UniProt Q9Y463)
DYRK2 (human) = DYRK2 (human) (UniProt Q92630)
[1] = tested on: EGFR (human), P00533 [G719S]
[2] = tested on: EGFR (human), P00533 [L861Q]
[3] = tested on: EGFR (human), P00533 [T790M/L858R]
[4] = tested on: EGFR (human), P00533 [T790M]
EPHA8 (human) = EPHA8 (human) (UniProt P29322)
Sequence of EPHA8 (human) (P29322 whole entry, looked up): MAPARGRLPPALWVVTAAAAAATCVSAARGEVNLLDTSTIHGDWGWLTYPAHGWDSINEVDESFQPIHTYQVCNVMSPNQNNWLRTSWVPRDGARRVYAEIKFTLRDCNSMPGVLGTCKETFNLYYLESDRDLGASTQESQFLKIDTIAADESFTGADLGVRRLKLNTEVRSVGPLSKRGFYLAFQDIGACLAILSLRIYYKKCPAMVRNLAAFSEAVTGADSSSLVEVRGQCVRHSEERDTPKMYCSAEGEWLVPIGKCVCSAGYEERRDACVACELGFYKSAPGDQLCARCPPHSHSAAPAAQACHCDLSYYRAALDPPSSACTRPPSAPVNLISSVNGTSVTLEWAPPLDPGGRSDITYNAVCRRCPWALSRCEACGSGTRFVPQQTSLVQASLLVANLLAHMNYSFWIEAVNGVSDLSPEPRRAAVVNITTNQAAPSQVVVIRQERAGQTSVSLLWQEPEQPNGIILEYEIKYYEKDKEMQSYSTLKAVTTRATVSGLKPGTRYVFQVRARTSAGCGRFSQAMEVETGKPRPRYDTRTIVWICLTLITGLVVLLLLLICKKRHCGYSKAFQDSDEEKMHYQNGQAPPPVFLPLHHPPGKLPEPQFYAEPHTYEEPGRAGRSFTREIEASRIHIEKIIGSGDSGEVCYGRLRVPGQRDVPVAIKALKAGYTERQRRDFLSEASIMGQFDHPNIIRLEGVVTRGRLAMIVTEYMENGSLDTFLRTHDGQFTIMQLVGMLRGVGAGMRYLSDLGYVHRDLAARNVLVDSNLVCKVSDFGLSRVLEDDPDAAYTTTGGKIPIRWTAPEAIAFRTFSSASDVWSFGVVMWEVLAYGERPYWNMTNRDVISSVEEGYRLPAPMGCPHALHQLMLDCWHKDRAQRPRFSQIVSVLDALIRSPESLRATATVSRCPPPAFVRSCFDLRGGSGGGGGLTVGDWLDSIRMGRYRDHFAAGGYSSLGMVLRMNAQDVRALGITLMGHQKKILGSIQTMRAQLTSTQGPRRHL

EPHB1 (human) = EPHB1 (human) (UniProt P54762)
HIPK3 (human) = HIPK3 (human) (UniProt Q9H422)
Sequence of HIPK3 (human) (Q9H422 whole entry, looked up): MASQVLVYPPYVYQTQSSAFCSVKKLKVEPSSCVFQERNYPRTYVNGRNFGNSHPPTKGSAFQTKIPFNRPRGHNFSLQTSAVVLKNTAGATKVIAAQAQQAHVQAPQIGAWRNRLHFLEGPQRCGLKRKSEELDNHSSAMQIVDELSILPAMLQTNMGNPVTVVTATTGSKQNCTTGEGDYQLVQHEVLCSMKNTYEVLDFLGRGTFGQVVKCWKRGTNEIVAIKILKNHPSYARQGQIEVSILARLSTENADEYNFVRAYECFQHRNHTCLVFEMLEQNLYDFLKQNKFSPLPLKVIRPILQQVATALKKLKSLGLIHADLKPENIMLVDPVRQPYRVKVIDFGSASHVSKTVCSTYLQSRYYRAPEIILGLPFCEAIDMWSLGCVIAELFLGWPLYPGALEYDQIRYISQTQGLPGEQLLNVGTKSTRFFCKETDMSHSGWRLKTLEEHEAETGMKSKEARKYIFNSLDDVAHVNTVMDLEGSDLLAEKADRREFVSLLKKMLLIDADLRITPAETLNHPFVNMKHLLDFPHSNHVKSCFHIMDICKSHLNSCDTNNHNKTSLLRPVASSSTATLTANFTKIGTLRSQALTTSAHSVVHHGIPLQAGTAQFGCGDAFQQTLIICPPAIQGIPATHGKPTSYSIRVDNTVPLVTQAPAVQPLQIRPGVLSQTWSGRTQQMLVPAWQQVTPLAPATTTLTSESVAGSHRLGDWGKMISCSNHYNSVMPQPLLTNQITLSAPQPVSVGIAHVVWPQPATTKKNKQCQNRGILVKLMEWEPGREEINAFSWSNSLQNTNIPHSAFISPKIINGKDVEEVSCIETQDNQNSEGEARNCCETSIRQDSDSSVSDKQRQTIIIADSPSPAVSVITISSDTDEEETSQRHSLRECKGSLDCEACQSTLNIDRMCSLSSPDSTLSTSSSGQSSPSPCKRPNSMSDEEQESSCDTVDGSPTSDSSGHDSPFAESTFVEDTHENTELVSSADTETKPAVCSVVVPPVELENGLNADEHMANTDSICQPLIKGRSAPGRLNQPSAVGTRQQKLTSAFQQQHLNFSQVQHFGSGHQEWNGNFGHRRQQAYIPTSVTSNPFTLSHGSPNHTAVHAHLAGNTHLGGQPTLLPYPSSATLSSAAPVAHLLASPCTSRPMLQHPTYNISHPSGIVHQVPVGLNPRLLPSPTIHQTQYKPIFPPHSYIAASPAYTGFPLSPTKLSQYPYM

[5] = tested on: KIT (human), P10721 [V559D/T670I]
LATS1 (human) = LATS1 (human) (UniProt O95835)
Sequence of LATS1 (human) (O95835 whole entry, looked up): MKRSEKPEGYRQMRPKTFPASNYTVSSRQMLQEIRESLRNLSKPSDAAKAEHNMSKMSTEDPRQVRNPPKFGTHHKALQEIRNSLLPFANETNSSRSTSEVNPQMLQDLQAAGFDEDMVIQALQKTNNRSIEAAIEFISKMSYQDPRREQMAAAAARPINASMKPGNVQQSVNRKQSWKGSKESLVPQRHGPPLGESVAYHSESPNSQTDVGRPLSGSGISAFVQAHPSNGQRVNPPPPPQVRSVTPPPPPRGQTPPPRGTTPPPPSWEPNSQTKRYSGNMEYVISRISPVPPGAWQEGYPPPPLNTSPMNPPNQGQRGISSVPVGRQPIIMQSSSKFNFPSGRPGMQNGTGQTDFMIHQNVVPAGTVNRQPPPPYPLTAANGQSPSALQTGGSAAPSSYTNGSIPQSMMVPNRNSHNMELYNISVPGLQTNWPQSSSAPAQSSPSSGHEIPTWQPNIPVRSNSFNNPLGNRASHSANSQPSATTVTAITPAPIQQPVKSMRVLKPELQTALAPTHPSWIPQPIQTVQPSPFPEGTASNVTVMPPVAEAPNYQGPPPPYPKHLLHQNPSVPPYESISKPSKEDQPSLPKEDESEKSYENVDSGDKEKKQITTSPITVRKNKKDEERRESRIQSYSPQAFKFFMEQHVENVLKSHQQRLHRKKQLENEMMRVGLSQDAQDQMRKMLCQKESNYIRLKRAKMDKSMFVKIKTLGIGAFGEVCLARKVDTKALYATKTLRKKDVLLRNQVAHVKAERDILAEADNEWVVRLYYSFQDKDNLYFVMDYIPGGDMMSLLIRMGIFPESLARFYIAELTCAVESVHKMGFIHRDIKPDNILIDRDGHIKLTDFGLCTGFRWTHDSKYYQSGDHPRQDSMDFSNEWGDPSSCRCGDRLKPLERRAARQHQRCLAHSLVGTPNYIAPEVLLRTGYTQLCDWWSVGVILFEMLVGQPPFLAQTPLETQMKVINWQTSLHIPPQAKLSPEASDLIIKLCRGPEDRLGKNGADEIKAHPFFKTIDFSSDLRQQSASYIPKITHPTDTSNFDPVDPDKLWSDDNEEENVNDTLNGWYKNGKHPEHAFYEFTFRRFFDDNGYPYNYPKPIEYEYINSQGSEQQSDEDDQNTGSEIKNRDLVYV

LIMK2 (human) = LIMK2 (human) (UniProt P53671)
MAP3K10 (human) = MAP3K10 (human) (UniProt Q02779)
MARK2 (human) = MARK2 (human) (UniProt Q7KZI7)
MARK3 (human) = MARK3 (human) (UniProt P27448)
MKNK2 (human) = MKNK2 (human) (UniProt Q9HBH9)
MLTK (human) = MLTK (human) (UniProt Q9NYL2)
NIM1 (human) = NIM1 (human) (UniProt Q8IY84)
OXSR1 (human) = OXSR1 (human) (UniProt O95747)
PHKG2 (human) = PHKG2 (human) (UniProt P15735)
PI4KB (human) = PI4KB (human) (UniProt Q9UBF8)
PRKAA1 (human) = PRKAA1 (human) (UniProt Q13131)
RPS6KA5 KD2 (human) = RPS6KA5 KD2 (human) (UniProt O75582)
Sequence of RPS6KA5 KD2 (human) (O75582 whole entry, looked up): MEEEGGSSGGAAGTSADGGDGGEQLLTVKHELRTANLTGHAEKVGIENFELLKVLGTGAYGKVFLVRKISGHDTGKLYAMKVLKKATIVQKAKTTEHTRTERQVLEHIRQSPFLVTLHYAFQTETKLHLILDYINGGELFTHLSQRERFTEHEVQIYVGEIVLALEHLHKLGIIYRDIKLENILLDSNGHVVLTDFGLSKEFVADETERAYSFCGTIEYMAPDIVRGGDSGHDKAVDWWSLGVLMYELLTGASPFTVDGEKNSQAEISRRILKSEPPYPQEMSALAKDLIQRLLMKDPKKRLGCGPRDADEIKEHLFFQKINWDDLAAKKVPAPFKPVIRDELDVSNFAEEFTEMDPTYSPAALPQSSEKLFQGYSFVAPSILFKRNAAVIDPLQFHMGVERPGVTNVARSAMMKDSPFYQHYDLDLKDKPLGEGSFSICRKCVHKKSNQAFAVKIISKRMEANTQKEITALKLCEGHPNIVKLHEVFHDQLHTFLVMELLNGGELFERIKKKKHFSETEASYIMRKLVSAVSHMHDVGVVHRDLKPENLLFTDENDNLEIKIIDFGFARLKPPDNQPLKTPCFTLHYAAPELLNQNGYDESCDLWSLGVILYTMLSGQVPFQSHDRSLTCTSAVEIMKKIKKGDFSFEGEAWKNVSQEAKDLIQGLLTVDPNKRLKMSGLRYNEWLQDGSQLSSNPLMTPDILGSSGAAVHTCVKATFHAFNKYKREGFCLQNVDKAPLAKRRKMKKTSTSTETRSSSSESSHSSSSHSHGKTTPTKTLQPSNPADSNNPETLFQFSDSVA

RPS6KA6 KD1 (human) = RPS6KA6 KD1 (human) (UniProt Q9UK32)
SGK110 (human) = SGK110 (human) (UniProt P0C264)
ULK2 (human) = ULK2 (human) (UniProt Q8IYT8)
VRK2 (human) = VRK2 (human) (UniProt Q86Y07)
YES1 (human) = YES1 (human) (UniProt P07947)

Sequence of AAK1 (human) (Q2M2I8 whole entry, looked up): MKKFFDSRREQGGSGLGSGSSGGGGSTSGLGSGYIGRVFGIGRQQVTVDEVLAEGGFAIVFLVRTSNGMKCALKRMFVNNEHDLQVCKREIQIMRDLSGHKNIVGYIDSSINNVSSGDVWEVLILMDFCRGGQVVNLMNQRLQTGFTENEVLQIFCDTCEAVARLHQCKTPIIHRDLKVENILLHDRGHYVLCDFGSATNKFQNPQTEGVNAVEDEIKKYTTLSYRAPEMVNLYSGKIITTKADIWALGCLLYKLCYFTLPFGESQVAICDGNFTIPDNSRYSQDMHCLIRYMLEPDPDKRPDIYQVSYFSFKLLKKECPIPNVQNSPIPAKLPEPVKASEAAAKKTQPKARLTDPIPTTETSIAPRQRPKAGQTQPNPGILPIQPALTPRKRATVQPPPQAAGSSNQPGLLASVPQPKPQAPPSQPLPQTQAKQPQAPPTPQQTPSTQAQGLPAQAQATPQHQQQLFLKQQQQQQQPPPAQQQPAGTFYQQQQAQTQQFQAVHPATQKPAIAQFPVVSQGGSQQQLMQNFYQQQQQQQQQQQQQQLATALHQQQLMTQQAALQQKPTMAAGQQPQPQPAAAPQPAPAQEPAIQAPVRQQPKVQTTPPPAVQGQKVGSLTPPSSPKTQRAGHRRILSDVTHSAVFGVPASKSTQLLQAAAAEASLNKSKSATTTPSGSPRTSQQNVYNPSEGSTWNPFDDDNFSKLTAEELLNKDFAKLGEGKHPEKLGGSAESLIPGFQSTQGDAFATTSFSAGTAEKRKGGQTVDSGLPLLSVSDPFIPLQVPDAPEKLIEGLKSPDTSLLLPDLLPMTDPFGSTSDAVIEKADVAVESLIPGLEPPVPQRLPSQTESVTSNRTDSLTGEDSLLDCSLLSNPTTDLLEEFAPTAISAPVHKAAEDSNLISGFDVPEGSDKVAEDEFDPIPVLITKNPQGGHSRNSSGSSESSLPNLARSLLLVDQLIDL

SMILES: Cc1cc([C@@H](C)Nc2ccccc2C(=O)O)c2nc(N3CCOCC3)cc(=O)n2c1
- kinase still bound, per cent of control (AAK1 (human)): 91%
- kinase still bound, per cent of control (AKT3 (human)): 80%
- kinase still bound, per cent of control (AURKA (human)): 75%
- kinase still bound, per cent of control (CAMK2D (human)): 100%
- kinase still bound, per cent of control (CAMK4 (human)): 100%
- kinase still bound, per cent of control (CAMKK1 (human)): 91%
- kinase still bound, per cent of control (CDC42BPG (human)): 99%
- kinase still bound, per cent of control (CDK17 (human)): 100%
- kinase still bound, per cent of control (CDKL2 (human)): 100%
- kinase still bound, per cent of control (CDKL5 (human)): 82%
- kinase still bound, per cent of control (CLK4 (human)): 100%
- kinase still bound, per cent of control (CSNK1G2 (human)): 100%
- kinase still bound, per cent of control (DAPK3 (human)): 78%
- kinase still bound, per cent of control (DCLK2 (human)): 100%
- kinase still bound, per cent of control (DYRK1B (human)): 100%
- kinase still bound, per cent of control (DYRK2 (human)): 72%
- kinase still bound, per cent of control [1]: 100%
- kinase still bound, per cent of control [2]: 76%
- kinase still bound, per cent of control [3]: 100%
- kinase still bound, per cent of control [4]: 100%
- kinase still bound, per cent of control (EPHA8 (human)): 82%
- kinase still bound, per cent of control (EPHB1 (human)): 99%
- kinase still bound, per cent of control (HIPK3 (human)): 68%
- kinase still bound, per cent of control [5]: 64%
- kinase still bound, per cent of control (LATS1 (human)): 60%
- kinase still bound, per cent of control (LIMK2 (human)): 100%
- kinase still bound, per cent of control (MAP3K10 (human)): 96%
- kinase still bound, per cent of control (MARK2 (human)): 100%
- kinase still bound, per cent of control (MARK3 (human)): 95%
- kinase still bound, per cent of control (MKNK2 (human)): 100%
- kinase still bound, per cent of control (MLTK (human)): 100%
- kinase still bound, per cent of control (NIM1 (human)): 100%
- kinase still bound, per cent of control (OXSR1 (human)): 80%
- kinase still bound, per cent of control (PHKG2 (human)): 67%
- kinase still bound, per cent of control (PI4KB (human)): 89%
- kinase still bound, per cent of control (PRKAA1 (human)): 62%
- kinase still bound, per cent of control (RPS6KA5 KD2 (human)): 100%
- kinase still bound, per cent of control (RPS6KA6 KD1 (human)): 80%
- kinase still bound, per cent of control (SGK110 (human)): 68%
- kinase still bound, per cent of control (ULK2 (human)): 100%
- kinase still bound, per cent of control (VRK2 (human)): 83%
- kinase still bound, per cent of control (YES1 (human)): 100%
